From ChEMBL document CHEMBL4765464, “Discovery of BMS-986144, a Third-Generation, Pan-Genotype NS3/4A Protease Inhibitor for the Treatment of Hepatitis C Virus Infection” (J Med Chem, 2020)

Key:
[1] = Inhibition of recombinant full length NS3/4A protease in Hepatitis C virus subtype 3a infected in human HuH7 cells using Ac-Asp-Glu-Asp (EDANS)-Glu-Glu-Abu-(COO) Ala-Ser-Lys (DABCYL)-NH2 as substrate by FRET assay; details: Huh-7
[2] = Inhibition of recombinant full length NS3/4A protease in Hepatitis C virus subtype 1a replicon infected in human HuH7 cells preincubated for 3 days followed by substrate addition and measured after 2 hrs by renilla luciferase reporter gene assay; type: cell-based; details: Huh-7
[3] = Inhibition of recombinant full length NS3/4A protease in Hepatitis C virus subtype 1b replicon infected in human HuH7 cells preincubated for 3 days followed by substrate addition and measured after 2 hrs by renilla luciferase reporter gene assay; type: cell-based; details: Huh-7
[4] = Inhibition of recombinant full length NS3/4A protease in Hepatitis C virus subtype 2a replicon infected in human HuH7 cells preincubated for 3 days followed by substrate addition and measured after 2 hrs by renilla luciferase reporter gene assay; type: cell-based; details: Huh-7
[5] = Inhibition of recombinant full length NS3/4A protease in Hepatitis C virus subtype 3a replicon infected in human HuH7 cells preincubated for 3 days followed by substrate addition and measured after 2 hrs by renilla luciferase reporter gene assay; type: cell-based; details: Huh-7
[6] = Inhibition of recombinant full length NS3/4A R155K mutant protease in Hepatitis C virus subtype 1a replicon infected in human HuH7 cells preincubated for 3 days followed by substrate addition and measured after 2 hrs by renilla luciferase reporter gene assay; type: cell-based; details: Huh-7
[7] = Inhibition of recombinant full length NS3/4A D168V mutant protease in Hepatitis C virus subtype 1b replicon infected in human HuH7 cells preincubated for 3 days followed by substrate addition and measured after 2 hrs by renilla luciferase reporter gene assay; type: cell-based; details: Huh-7
[8] = Half life in rat at 1 mg/kg, iv; type: ADME, organism-based; details: in vivo
[9] = AUC (0 to 24 hrs) in rat at 5 mg/kg, po; type: ADME, organism-based; parameters: time < 24 hr, route oral, dose 5 mg/kg; details: in vivo
[10] = Drug concentration in rat liver at 5 mg/kg, po measured upto 24 hrs; type: ADME, organism-based; details: read-out: Ct
[11] = Ratio of drug concentration in liver to plasma in rat at 5 mg/kg, po measured upto 24 hrs; type: ADME, organism-based; details: liver and plasma
[12] = Oral bioavailability in rat at 5 mg/kg; type: ADME, organism-based; details: in vivo
[13] = Half-life in rat at 5 mg/kg, po or 1 mg/kg, iv; type: ADME, organism-based; details: in vivo
[14] = Clearance in rat at 5 mg/kg, po or 1 mg/kg, iv; type: ADME, organism-based; details: in vivo
[15] = AUC in rat at 5 mg/kg, po or 1 mg/kg, iv; type: ADME, organism-based; parameters: dose 5 mg/kg; details: in vivo
[16] = Clearance in dog at 3 mg/kg, po or 1 mg/kg, iv; type: ADME, organism-based, Canis lupus familiaris; details: in vivo
[17] = AUC in dog at 3 mg/kg, po or 1 mg/kg, iv; type: ADME, organism-based, Canis lupus familiaris; parameters: dose 3 mg/kg; details: in vivo
[18] = Drug concentration in dog plasma at 3 mg/kg, po measured upto 24 hrs; type: ADME, organism-based, Canis lupus familiaris; details: read-out: Ct
[19] = Clearance in cynomolgus monkey at 3 mg/kg, po or 1 mg/kg, iv; type: ADME, organism-based, Macaca fascicularis; details: in vivo
[20] = AUC in cynomolgus monkey at 3 mg/kg, po or 1 mg/kg, iv; type: ADME, organism-based, Macaca fascicularis; parameters: dose 3 mg/kg; details: in vivo
[21] = Drug concentration in cynomolgus monkey plasma at 3 mg/kg, po measured upto 24 hrs; type: ADME, organism-based, Macaca fascicularis; details: read-out: Ct
[22] = Inhibition of HCV 1a NS3/4A protease; parameters: species or system Hepatitis C virus subtype 1a
[23] = Inhibition of HCV 1b NS3/4A protease; parameters: species or system Hepatitis C virus subtype 1b
[24] = Inhibition of HCV 2a NS3/4A protease; parameters: species or system Hepatitis C virus subtype 2a
[25] = Inhibition of HCV 2b NS3/4A protease; parameters: species or system Hepatitis C virus subtype 2b
[26] = Inhibition of HCV 3a NS3/4A protease; parameters: species or system Hepatitis C virus subtype 3a
[27] = Inhibition of HCV 4a NS3/4A protease; parameters: species or system Hepatitis C virus subtype 4a
[28] = Inhibition of HCV 5a NS3/4A protease; parameters: species or system Hepatitis C virus subtype 5a
[29] = Inhibition of HCV 6a NS3/4A protease; parameters: species or system Hepatitis C virus subtype 6a
[30] = Inhibition of HCV 1b NS3/4A protease preincubated for 45 mins in presence of compound; parameters: species or system Hepatitis C virus subtype 1b
[31] = Inhibition of HCV 2a NS3/4A protease preincubated for 45 mins in presence of compound; parameters: species or system Hepatitis C virus subtype 2a
[32] = Inhibition of HCV 2b NS3/4A protease preincubated for 45 mins in presence of compound; parameters: species or system Hepatitis C virus subtype 2b
[33] = Inhibition of HCV 3a NS3/4A protease preincubated for 45 mins in presence of compound; parameters: species or system Hepatitis C virus subtype 3a
[34] = Inhibition of HCV 5a NS3/4A protease preincubated for 45 mins in presence of compound; parameters: species or system Hepatitis C virus subtype 5a
[35] = Inhibition of HCV 6a NS3/4A protease preincubated for 45 mins in presence of compound; parameters: species or system Hepatitis C virus subtype 6a
[36] = Selectivity index, ratio of IC50 for inhibition of HCV 1a NS3/4A protease to IC50 for inhibition of HCV 1a NS3/4A protease preincubated for 45 mins in presence of compound
[37] = Selectivity index, ratio of IC50 for inhibition of HCV 1b NS3/4A protease to IC50 for inhibition of HCV 1b NS3/4A protease preincubated for 45 mins in presence of compound
[38] = Selectivity index, ratio of IC50 for inhibition of HCV 2a NS3/4A protease to IC50 for inhibition of HCV 2a NS3/4A protease preincubated for 45 mins in presence of compound
[39] = Selectivity index, ratio of IC50 for inhibition of HCV 2b NS3/4A protease to IC50 for inhibition of HCV 2b NS3/4A protease preincubated for 45 mins in presence of compound
[40] = Selectivity index, ratio of IC50 for inhibition of HCV 5a NS3/4A protease to IC50 for inhibition of HCV 5a NS3/4A protease preincubated for 45 mins in presence of compound
[41] = Selectivity index, ratio of IC50 for inhibition of HCV 6a NS3/4A protease to IC50 for inhibition of HCV 6a NS3/4A protease preincubated for 45 mins in presence of compound
[42] = target: T1, Cytochrome P450 3A4 (Homo sapiens, UniProt P08684); assay: Inhibition of human CYP3A4 in human pooled liver microsomes at 0.002 to 40 uM in presence of midazolam as substrate preincubated in presence of NADPH followed by addition of substrate by LC-MS/MS analysis; type: ADME; details: TDE = time-dependent effect, dose 0.002-40 µM, time <=30 min
T1 sequence (P08684 whole entry): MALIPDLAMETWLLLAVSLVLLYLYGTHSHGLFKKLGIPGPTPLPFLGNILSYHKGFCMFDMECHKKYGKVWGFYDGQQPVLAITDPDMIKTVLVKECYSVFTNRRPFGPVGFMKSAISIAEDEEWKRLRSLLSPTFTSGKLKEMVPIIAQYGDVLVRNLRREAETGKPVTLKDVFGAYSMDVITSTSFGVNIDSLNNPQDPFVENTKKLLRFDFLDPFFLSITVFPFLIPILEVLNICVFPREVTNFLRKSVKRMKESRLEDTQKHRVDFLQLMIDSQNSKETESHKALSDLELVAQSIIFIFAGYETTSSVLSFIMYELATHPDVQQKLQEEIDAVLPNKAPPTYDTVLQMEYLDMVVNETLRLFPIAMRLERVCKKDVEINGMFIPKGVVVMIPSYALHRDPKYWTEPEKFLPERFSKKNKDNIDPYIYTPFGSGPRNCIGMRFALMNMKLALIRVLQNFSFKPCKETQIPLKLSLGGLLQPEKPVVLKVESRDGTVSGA

[43] = target: T1, Cytochrome P450 3A4; assay: Inhibition of human CYP3A4 in human pooled liver microsomes at 0.002 to 40 uM in presence of testosterone as substrate preincubated in presence of NADPH followed by addition of substrate by LC-MS/MS analysis; type: ADME; details: TDE = time-dependent effect, dose 0.002-40 µM, time <=30 min
[44] = target: T1, Cytochrome P450 3A4; assay: Inhibition of human CYP3A4 in human pooled liver microsomes in presence of midazolam as substrate preincubated for 0 mins in presence of NADPH followed by addition of substrate by LC-MS/MS analysis; type: ADME
[45] = target: T1, Cytochrome P450 3A4; assay: Inhibition of human CYP3A4 in human pooled liver microsomes in presence of testosterone as substrate preincubated for 30 mins in presence of NADPH followed by addition of substrate by LC-MS/MS analysis; type: ADME

In the case of `CC[C@@H]1C[C@H](C)CC/C=C\[C@@H]2C[C@@]2(C(=O)NS(=O)(=O)C2(C)CC2)NC(=O)[C@@H]2C[C@@H](Oc3nccc4cc(OC)c(F)cc34)CN2C(=O)[C@H]1NC(=O)OC(C)(C)C(F)(F)F`, the IC50 [1] is reported as 6.3 nM, the EC50 [2] is reported as 2.8 nM and the EC50 [3] is reported as 1.1 nM. The EC50 [4] was 1.4 nM, the EC50 [5] was 14 nM and the EC50 [6] was 11 nM. For the same molecule, the EC50 [7] was 6 nM, the half-life [8] was 9.3 h and the AUC(0-t) at 24 h [9] was 151 µM·h. It also gave a concentration at 24 h [10] of 5.83 µM, a Kp at 24 h [11] of 1.5 and a bioavailability [12] of 50%. It also gave a half-life [13] of 9.3 h, a clearance [14] of 0.018 L/h/kg and an AUC [15] of 241 µM·h. It also gave a clearance [16] of 0.018 L/h/kg, an AUC [17] of 81 µM·h and a concentration at 24 h [18] of 0.838 µM. The clearance [19] was 0.558 L/h/kg, the AUC [20] was 0.898 µM·h and the concentration at 24 h [21] was 0.001 µM. It also gave an IC50 [22] of 0.8 nM, an IC50 [23] of 0.6 nM and an IC50 [24] of 0.7 nM. It also gave an IC50 [25] of 2 nM, an IC50 [26] of 5.6 nM and an IC50 [27] of 0.9 nM. The IC50 [28] was 1 nM, the IC50 [29] was 0.7 nM and the IC50 [30] was 0.1 nM. It also gave an IC50 [31] of 0.2 nM, an IC50 [32] of 0.9 nM and an IC50 [33] of 7.5 nM. The IC50 [34] was 0.1 nM, the IC50 [35] was 0.1 nM and the Selectivity Index [36] was 4. For the same molecule, the Selectivity Index [37] was 6, the Selectivity Index [38] was 3.5 and the Selectivity Index [39] was 2. The Selectivity Index [40] was 10, the Selectivity Index [41] was 6 and the “inhibition (INH)” value [42] was “Tde”. The “inhibition (INH)” value [43] was “Tde”, the IC50 [44] was > 40000 nM and the IC50 [45] was 3020 nM.
